Laboratory results: ChEMBL document CHEMBL1201862, “PubChem BioAssay data set” (2004)
Active and inactive are the calls of the source.

What was measured:
Cytochrome P450 2C19 = Cytochrome P450 2C19 (Homo sapiens, UniProt P33261); experiment: Cytochrome panel assay with activity outcomes. Panel member name: p450-cyp2c19 Compounds with AC50 equal or less than 10 uM are considered active; assay type: functional
Cytochrome P450 3A4 = Cytochrome P450 3A4 (Homo sapiens, UniProt P08684);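 also: CYP3A4 tested as one member of a cytochrome P450 panel screen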
Cytochrome P450 2C9 = Cytochrome P450 2C9 (Homo sapiens, UniProt P11712)
[1] = molecular target: T1, Heat shock factor protein 1 (Mus musculus, UniProt P38532); experiment: decrease of HSF1-responsive luciferase luminescence – cell-based, NIH3T3, dose retest, confirmation (AID 2382); assay type: functional;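 also: NIH3T3 fibroblasts with HSF1-driven luciferase reporter stressed by proteasome inhibitor MG132; luminescence from HSF1-driven luciferase expression after 8 hours of MG132 stress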
T1 sequence (P38532 whole entry): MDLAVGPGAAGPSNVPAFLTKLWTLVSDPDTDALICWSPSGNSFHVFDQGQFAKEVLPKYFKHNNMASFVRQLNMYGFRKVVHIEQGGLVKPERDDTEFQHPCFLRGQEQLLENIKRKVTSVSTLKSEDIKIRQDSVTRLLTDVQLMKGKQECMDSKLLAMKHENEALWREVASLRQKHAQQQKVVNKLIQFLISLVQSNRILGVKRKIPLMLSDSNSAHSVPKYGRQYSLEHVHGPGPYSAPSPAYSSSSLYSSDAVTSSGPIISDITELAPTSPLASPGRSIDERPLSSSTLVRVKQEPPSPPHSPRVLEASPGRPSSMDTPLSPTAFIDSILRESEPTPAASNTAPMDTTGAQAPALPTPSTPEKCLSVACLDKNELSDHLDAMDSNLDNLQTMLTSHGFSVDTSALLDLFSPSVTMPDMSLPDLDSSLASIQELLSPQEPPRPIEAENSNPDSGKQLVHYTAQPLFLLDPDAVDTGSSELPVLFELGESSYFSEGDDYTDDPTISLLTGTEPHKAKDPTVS

[2] = test system: Streptococcus sp. 'group A'; experiment: Streptococcus pyogenes SK(-)GAS viability under kanamycin – luminescence, BacTiterGlo, confirmation, counter-screen for streptokinase expression inhibitor project, dose response (AID 1900); assay type: functional, organism-based
Streptokinase A = molecular target: T2, Streptokinase A (Streptococcus pyogenes serotype M1, UniProt P10520); experiment: viability-normalized secreted streptokinase activity reduction – plasminogen activation absorbance, OD405, dose response (AID 1914); assay type: functional, Streptococcus pyogenes M1 GAS;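 also: secreted streptokinase activity via plasminogen activation per viability signal from cell pellet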
T2 sequence (P10520 whole entry): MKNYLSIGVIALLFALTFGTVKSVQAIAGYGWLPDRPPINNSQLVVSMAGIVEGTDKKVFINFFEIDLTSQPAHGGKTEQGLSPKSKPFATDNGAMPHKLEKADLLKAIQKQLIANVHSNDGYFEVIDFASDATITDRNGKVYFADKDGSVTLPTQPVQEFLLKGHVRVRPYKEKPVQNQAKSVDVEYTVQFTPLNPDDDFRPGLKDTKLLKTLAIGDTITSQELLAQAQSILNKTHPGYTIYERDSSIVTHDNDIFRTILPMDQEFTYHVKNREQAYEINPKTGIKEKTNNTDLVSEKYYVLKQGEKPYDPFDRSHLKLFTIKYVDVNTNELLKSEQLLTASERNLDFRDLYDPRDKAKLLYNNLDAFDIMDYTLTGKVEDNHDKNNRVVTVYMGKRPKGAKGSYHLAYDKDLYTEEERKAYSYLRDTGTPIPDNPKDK

Streptococcus = experiment: GAS UMAA2166 growth inhibition – luminescence, BacTiterGlo, counter-screen for streptokinase expression inhibitor project, dose response (AID 1915); assay type: functional, organism-based;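 also: potency for reduction of bacterial viability or growth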
Cytochrome P450 1A2 = molecular target: T3, Cytochrome P450 1A2 (Homo sapiens, UniProt P05177);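 also: PubChem cytochrome P450 panel assay, CYP1A2 panel member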
T3 sequence (P05177 whole entry): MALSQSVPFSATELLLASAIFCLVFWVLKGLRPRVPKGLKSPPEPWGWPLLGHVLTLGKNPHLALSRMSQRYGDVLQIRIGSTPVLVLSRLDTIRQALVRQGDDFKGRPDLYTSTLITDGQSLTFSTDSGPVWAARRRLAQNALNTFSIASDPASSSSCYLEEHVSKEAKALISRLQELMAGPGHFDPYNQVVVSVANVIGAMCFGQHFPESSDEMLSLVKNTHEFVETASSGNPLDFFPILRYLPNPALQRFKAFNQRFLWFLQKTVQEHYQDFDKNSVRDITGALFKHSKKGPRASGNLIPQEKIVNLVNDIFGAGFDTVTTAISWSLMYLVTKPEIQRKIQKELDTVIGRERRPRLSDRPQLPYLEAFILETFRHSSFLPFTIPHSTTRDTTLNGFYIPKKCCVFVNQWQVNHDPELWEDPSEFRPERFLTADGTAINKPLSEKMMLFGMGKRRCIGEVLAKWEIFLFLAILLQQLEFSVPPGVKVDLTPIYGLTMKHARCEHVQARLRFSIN

[3] = Luminescence Cell-Based Dose Response HTS to Identify Activators of Luciferase Translation or Activity in H4 […] Cells. [Related pubchem assays: 1829 (Project Summary), 1814 (Primary HTS)]; assay type: functional
[4] = Luminescence Cell-Based Dose Confirmation HTS to Identify Activators of 5'UTR Stem-Loop Driven Alpha-Synuclein mRNA Translation in H4 Neuroglioblastoma Cells. [Related pubchem assays: 1829 (Project Summary), 1814 (Primary HTS)]; assay type: functional
H4 = experiment: Luminescence Cell-Based Dose Response HTS to Identify Activators of 5'UTR Stem-Loop Driven Prion Protein mRNA Translation in H4 Neuroglioblastoma Cells. [Related pubchem assays: 1829 (Project Summary), 1814 (Primary HTS)]; assay type: functional; details: Homo sapiens
Cytochrome P450 2D6 = Cytochrome P450 2D6 (Homo sapiens, UniProt P10635);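 also: CYP2D6 member of a cytochrome P450 panel assay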
Cytochrome P450 2D6, sequence (P10635 whole entry): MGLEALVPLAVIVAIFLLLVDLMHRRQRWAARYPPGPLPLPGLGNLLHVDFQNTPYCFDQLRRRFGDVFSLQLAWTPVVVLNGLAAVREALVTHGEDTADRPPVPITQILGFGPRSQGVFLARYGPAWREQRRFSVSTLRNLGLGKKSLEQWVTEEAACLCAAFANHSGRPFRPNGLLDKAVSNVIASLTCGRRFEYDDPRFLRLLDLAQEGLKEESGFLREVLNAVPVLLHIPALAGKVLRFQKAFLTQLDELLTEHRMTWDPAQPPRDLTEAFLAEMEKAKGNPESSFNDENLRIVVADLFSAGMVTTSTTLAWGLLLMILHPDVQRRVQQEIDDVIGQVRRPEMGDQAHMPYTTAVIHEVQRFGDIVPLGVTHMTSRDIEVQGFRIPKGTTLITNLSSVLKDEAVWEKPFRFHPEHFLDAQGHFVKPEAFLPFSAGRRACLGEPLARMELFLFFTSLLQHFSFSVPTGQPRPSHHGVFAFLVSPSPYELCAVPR

Cytochrome P450 2C19, sequence (P33261 whole entry): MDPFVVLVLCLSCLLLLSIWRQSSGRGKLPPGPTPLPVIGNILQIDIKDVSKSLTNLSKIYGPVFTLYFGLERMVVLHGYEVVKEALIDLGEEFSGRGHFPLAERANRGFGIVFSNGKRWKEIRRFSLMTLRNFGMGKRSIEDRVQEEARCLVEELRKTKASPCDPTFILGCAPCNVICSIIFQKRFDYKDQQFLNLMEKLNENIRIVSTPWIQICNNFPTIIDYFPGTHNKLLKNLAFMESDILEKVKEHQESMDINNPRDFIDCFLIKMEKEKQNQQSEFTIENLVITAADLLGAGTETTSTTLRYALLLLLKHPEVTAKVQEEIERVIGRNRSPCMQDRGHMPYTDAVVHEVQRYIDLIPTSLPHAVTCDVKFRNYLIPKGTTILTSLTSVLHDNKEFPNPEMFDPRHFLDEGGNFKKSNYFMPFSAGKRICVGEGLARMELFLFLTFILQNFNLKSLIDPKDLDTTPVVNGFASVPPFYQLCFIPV
Cytochrome P450 2C9, sequence (P11712 whole entry): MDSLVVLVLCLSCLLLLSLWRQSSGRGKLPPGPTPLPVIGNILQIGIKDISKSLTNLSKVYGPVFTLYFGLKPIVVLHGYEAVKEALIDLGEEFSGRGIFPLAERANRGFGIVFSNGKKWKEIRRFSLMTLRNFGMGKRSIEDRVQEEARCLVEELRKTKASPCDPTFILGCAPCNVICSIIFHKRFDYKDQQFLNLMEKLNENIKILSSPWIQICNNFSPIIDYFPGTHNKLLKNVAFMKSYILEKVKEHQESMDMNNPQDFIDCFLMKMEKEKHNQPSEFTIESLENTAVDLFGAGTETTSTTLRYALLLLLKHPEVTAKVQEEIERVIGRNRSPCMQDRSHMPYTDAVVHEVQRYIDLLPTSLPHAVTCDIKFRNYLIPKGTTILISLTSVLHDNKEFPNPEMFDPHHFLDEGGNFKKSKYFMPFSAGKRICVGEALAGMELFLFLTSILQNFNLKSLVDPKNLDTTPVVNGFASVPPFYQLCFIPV
Cytochrome P450 3A4, sequence (P08684 whole entry): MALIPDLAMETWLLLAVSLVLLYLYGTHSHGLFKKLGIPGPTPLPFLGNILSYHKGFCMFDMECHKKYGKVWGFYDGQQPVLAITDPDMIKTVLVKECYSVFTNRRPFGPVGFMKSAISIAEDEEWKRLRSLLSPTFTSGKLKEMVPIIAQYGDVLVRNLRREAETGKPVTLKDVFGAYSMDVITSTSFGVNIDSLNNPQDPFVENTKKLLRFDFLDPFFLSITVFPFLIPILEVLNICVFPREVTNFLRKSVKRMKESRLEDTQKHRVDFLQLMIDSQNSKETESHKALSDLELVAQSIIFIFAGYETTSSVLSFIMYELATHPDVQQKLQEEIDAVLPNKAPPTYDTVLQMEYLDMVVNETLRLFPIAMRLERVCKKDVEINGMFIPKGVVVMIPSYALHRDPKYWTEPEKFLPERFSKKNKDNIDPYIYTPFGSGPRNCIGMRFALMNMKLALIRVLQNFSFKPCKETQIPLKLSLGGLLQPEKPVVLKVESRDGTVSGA

COc1ccc(N2CC(C(=O)OCC(=O)c3cccc(OC)c3)CC2=O)cc1 (centres undefined)
AC50 (Cytochrome P450 2C19; read-out: AC50): 8.91 µM (inconclusive)

CCSc1ccc2c(c1)N(CCCN1CCN(C)CC1)c1ccccc1S2
AC50 (Cytochrome P450 3A4): 10 µM (inconclusive) | AC50 (Cytochrome P450 2C19; read-out: AC50): 3.16 µM (inconclusive)

Cc1ncc(CSC(=N)N)n1Cc1ccccc1
AC50 (Cytochrome P450 2C19; read-out: AC50): 7.94 µM (inconclusive)

CCOC(=O)Nc1nc(-c2ccccc2)c(C)s1
AC50 (Cytochrome P450 2C9): 7.94 µM (inconclusive) | AC50 (Cytochrome P450 2C19; read-out: AC50): 3.98 µM (inconclusive)

CSc1cccc(NC(=S)N2CCC(N(C)C3CCCC3)CC2)c1
EC50 [1]: > 195 µM (not active)

COc1ccc(C(C)N=C(S)NC2CCCCC2)cc1OC (centres undefined)
EC50 [1]: > 195 µM (not active)

FC(F)(F)c1cc(-c2ccccc2)nc(N2CCCCCC2)n1
EC50 [2]: 4.27 µM (active) | EC50 (Streptokinase A): 5.14 µM (active) | EC50 (Streptococcus): 14.3 µM (active)

COc1[nH]nc2nncnc12
AC50 (Cytochrome P450 1A2): 6.31 µM (inconclusive) | AC50 (Cytochrome P450 2C19; read-out: AC50): 15.8 µM (inconclusive)

CCC1C(=O)n2nc(-c3ccccc3)cc2N=C1C (centres undefined)
EC50 [3]: 6.09 µM (active) | EC50 [4]: 25.7 µM (active)

COc1ccc(N2CCN(C(=O)Cc3csc(NC(=O)Nc4ccccc4OC)n3)CC2)cc1
EC50 [2]: > 150 µM (not active) | EC50 (Streptokinase A): > 150 µM (not active) | EC50 (Streptococcus): 32.7 µM (active)

O=C(Nc1nc(-c2ccccn2)cs1)C12CC3CC(CC(O)(C3)C1)C2
EC50 [2]: > 150 µM (not active) | EC50 (Streptokinase A): > 150 µM (not active) | EC50 (Streptococcus): > 150 µM (not active)

CC(=O)c1cc(C)ccc1OC(=O)CCN1C(=O)C2C3c4ccccc4C(c4ccccc43)C2C1=O (centres undefined)
AC50 (Cytochrome P450 3A4): 31.6 µM (inconclusive) | AC50 (Cytochrome P450 2C19; read-out: AC50): 10 µM (inconclusive)

Cc1cc(O)[nH]c2nnc(-c3ccccc3)c1-2
EC50 [3]: 10 µM (active) | EC50 [4]: 8.88 µM (active) | EC50 (H4): 15.1 µM (active)

O=C(NC1CCCCC1)C(c1ccco1)N(C(=O)c1csnn1)c1ccc(Cl)cc1 (centres undefined)
EC50 [1]: > 195 µM (not active)

Cc1ccc(C(=O)N(CN2CCCC2=O)c2ccccc2)cc1C
AC50 (Cytochrome P450 1A2): 5.01 µM (inconclusive) | AC50 (Cytochrome P450 2C9): 0.00562 µM (inconclusive)

COc1cc(Cn2cnnn2)ccc1O
AC50 (Cytochrome P450 1A2): 39.8 µM (inconclusive) | AC50 (Cytochrome P450 2C9): 0.178 µM (inconclusive)

COc1cc2c(cc1OC)/C(=C/C(=O)N1CCOCC1)NC(C)(C)C2
AC50 (Cytochrome P450 1A2): 15.8 µM (inconclusive) | AC50 (Cytochrome P450 2C9): 3.98 µM (inconclusive) | AC50 (Cytochrome P450 2C19; read-out: AC50): 22.4 µM (inconclusive)

COc1cc(NC(=O)n2ncc3cc(Cl)ccc32)cc(OC)c1
EC50 [3]: 17.4 µM (active) | EC50 (H4): 12.5 µM (active)

COc1ccc(C(=O)N2CCCC(Nc3ccc(C)c(C)c3)C2)cc1F (centres undefined)
EC50 [2]: > 150 µM (not active) | EC50 (Streptokinase A): > 150 µM (not active) | EC50 (Streptococcus): > 150 µM (not active)

COc1ccccc1CNc1ccnc(-c2ccc(C(=O)N(C)C)cc2)n1
AC50 (Cytochrome P450 2D6): 39.8 µM (inconclusive) | AC50 (Cytochrome P450 2C19; read-out: AC50): 39.8 µM (inconclusive)

CCCC(=O)Nc1c(C)n[nH]c1C
AC50 (Cytochrome P450 2C19; read-out: AC50): 3.98 µM (inconclusive)

COC(=O)CCCC1=CC2=C(c3ccccc3)C(=O)C(C)(OC(=O)C3CCCC3)C(=O)C2=CN1c1ccc(OC)cc1 (centres undefined)
EC50 [1]: > 195 µM (not active)

Cc1ccc(OCC(=O)NNC(=O)CCC(=O)Nc2ccc(C)cc2C)cc1
AC50 (Cytochrome P450 2C19): inconclusive
